Experimental data taken from patent US20230045421A1 (priority 2018, published 2023).
pEC50: −log10 of the molar value. Like-named read-outs stand apart in the source and are kept apart here.

Tested on: HBV rcDNA
Test: HepDE19 assay with bDNA quantitation of HBV rcDNA
Type: cell-based, hepatitis B virus
Method in brief: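 Compounds, top concentration 25 μM in 8-point duplicate series, were applied to Tet-free HepDE19 cultures for 7 days. Branched-DNA quantitation of HBV rcDNA against untreated wells gave EC50 and EC90 by 4-parameter fit. Viability (CC50) came from ATP luminescence on parallel plates incubated 4 days.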

[1] = HepDE19 assay, inhibition of formation of relaxed circular DNA (rcDNA), bDNA quantitation; read-out: DE-19bDNA EC50
[2] = HepDE19 assay, inhibition of formation of rcDNA; read-out: DE-19bDNA EC50
[3] = read-out: DE-19bDNA EC50; HepDE19 assay, inhibition of formation of relaxed circular DNA (rcDNA), bDNA quantitation
[4] = read-out: DE-19bDNA EC50; HepDE19 assay, inhibition of formation of rcDNA
[5] = Hepatitis B virus, HepDE19, HepDE19 assay, inhibition of formation of rcDNA; read-out: DE-19bDNA EC50

CC(c1c[nH]c(=O)c2c(F)c(F)ccc12)N(C)C(=O)Nc1ccncc1 (single isomer, unassigned) [Compound 449, 1-(1-(7,8-Difluoro-1-oxo-1,2-dihydroisoquinolin-4-yl)ethyl)-1-methyl-3-(pyridin-4-yl)urea]
EC50 (Hepatitis B virus, HepDE19, read-out: DE-19bDNA EC50 (μM), HepDE19 assay, inhibition of formation of relaxed circular DNA (rcDNA), bDNA quantitation): 15 µM

CC(c1c[nH]c(=O)c2ccc(F)cc12)N(CC(CO)CO)C(=O)Nc1ccc(F)c(Cl)c1 (single isomer, unassigned) [Compound 296, 3-(3-Chloro-4-fluorophenyl)-1-(1-(6-fluoro-1-oxo-1,2-dihydroisoquinolin-4-yl)ethyl)-1-(3-hydroxy-2-(hydroxymethyl)propyl)urea]
pEC50 [1]: 7.40

CC(C)CN(C(=O)Nc1ccc(F)c(Cl)c1)C(C)c1c[nH]c(=O)c2ccccc12 (single isomer, unassigned) [Compound 143, 3-(3-chloro-4-fluorophenyl)-1-isobutyl-1-(1-(1-oxo-1,2-dihydroisoquinolin-4-yl)ethyl)urea]
pEC50 [2]: 6.07

CC(c1c[nH]c(=O)c2c(F)c(F)ccc12)N(C)C(=O)Nc1cccc(F)c1F (single isomer, unassigned) [Compound 459, 1-(1-(7,8-Difluoro-1-oxo-1,2-dihydroisoquinolin-4-yl)ethyl)-3-(2,3-difluorophenyl)-1-methylurea]
pEC50 [1]: 6.70

CC(c1c[nH]c(=O)c2ccccc12)N(C[C@H](C)O)C(=O)Nc1ccc(F)c(Cl)c1 (single isomer, unassigned) [Compound 217]
pEC50 [2]: 5.09

CC(c1c[nH]c(=O)c2c(F)cc(F)cc12)N(C)C(=O)Nc1ccc(F)cc1 (single isomer, unassigned) [Compound 370, 1-(1-(6,8-Difluoro-1-oxo-1,2-dihydroisoquinolin-4-yl)ethyl)-3-(4-fluorophenyl)-1-methylurea]
pEC50 [1]: 5.25

CC(C)CN(C(=O)Nc1ccc(F)c(Cl)c1)C(C)c1cnc(-n2cncn2)c2ccccc12 (single isomer, unassigned) [Compound 344, 1-(1-(1-(1H-1,2,4-triazol-1-yl)isoquinolin-4-yl)ethyl)-3-(3-chloro-4-fluorophenyl)-1-isobutylurea]
pEC50 [1]: 5.64

CC(c1c[nH]c(=O)c2cc(F)c(F)cc12)N(C)C(=O)Nc1ccccc1F (single isomer, unassigned) [Compound 421, 1-(1-(6,7-Difluoro-1-oxo-1,2-dihydroisoquinolin-4-yl)ethyl)-3-(2-fluorophenyl)-1-methylurea]
pEC50 [3]: 4.77

CC(c1cnc(NCc2cn[nH]n2)c2ccccc12)N(C)C(=O)Nc1ccc(F)c(Cl)c1 (single isomer, unassigned) [Compound 262, 1-(1-(1-(((2H-1,2,3-Triazol-4-yl)methyl)amino)isoquinolin-4-yl)ethyl)-3-(3-chloro-4-fluorophenyl)-1-methylurea]
pEC50 [2]: 6.82

CC(c1cn(C)c(=O)c2cc(F)ccc12)N(C)C(=O)Nc1ccc(F)c(Cl)c1 (single isomer, unassigned) [Compound 302, 3-(3-Chloro-4-fluorophenyl)-1-(1-(7-fluoro-2-methyl-1-oxo-1,2-dihydroisoquinolin-4-yl)ethyl)-1-methylurea]
pEC50 [1]: 5.48

CNc1ncc(C(C)N(C)C(=O)Nc2ccc(F)c(Cl)c2)c2ccccc12 (single isomer, unassigned) [Compound 232, 3-(3-Chloro-4-fluorophenyl)-1-methyl-1-(1-(1-(methylamino)isoquinolin-4-yl)ethyl)urea]
pEC50 [2]: 6.92

CC(c1c[nH]c(=O)c2ccccc12)N(CC1COC(C)(C)OC1)C(=O)Nc1ccccc1 (single isomer, unassigned) [Compound 275, 1-((2,2-Dimethyl-1,3-dioxan-5-yl)methyl)-1-(1-(1-oxo-1,2-dihydroisoquinolin-4-yl)ethyl)-3-phenylurea]
EC50 (Hepatitis B virus, HepDE19, read-out: DE-19bDNA EC50 (μM), HepDE19 assay, inhibition of formation of rcDNA): 0.83 µM

CC(c1cnc(CO)c2ccccc12)N(C)C(=O)Nc1ccc(F)c(Cl)c1 (single isomer, unassigned) [Compound 327, 3-(3-Chloro-4-fluorophenyl)-1-(1-(1-(hydroxymethyl)isoquinolin-4-yl)ethyl)-1-methylurea]
pEC50 [1]: 6.15

Cc1[nH]c(=O)c2ccccc2c1C(C)N(C)C(=O)Nc1ccc(F)c(Cl)c1 (single isomer, unassigned) [Compound 223, 3-(3-Chloro-4-fluorophenyl)-1-methyl-1-(1-(3-methyl-1-oxo-1,2-dihydroisoquinolin-4-yl)ethyl)urea]
pEC50 [2]: 7.57

CC(c1cnc(C#N)c2ccccc12)N(C)C(=O)Nc1ccc(F)c(Cl)c1 (single isomer, unassigned) [Compound 337, 3-(3-Chloro-4-fluorophenyl)-1-(1-(1-cyanoisoquinolin-4-yl)ethyl)-1-methylurea]
pEC50 [1]: 6.60

CC(c1c[nH]c(=O)c2ccccc12)N(Cc1ccncc1)C(=O)Nc1ccc(F)c(Cl)c1 (single isomer, unassigned) [Compound 309, 3-(3-Chloro-4-fluorophenyl)-1-(1-(1-oxo-1,2-dihydroisoquinolin-4-yl)ethyl)-1-(pyridin-4-ylmethyl) urea]
pEC50 [1]: 4.96

CC(c1c[nH]c(=O)c2ccccc12)N(CCCO)C(=O)Nc1ccc(F)c(Cl)c1 (single isomer, unassigned) [Compound 130, 3-(3-Chloro-4-fluorophenyl)-1-(3-hydroxypropyl)-1-(1-(1-oxo-1,2-dihydroisoquinolin-4-yl)ethyl)urea]
pEC50 [4]: 5.10

CC(c1c[nH]c(=O)c2ccccc12)N(CC1CCCC1)C(=O)Nc1ccc(F)c(Cl)c1 (single isomer, unassigned) [Compound 192, 3-(3-Chloro-4-fluorophenyl)-1-(cyclopentylmethyl)-1-(1-(1-oxo-1,2-dihydroisoquinolin-4-yl)ethyl)urea]
pEC50 [2]: 6.38

CC(c1c[nH]c(=O)c2cc(F)c(F)cc12)N(C)C(=O)Nc1ccc(F)cc1 (single isomer, unassigned) [Compound 285, 1-(1-(6,7-Difluoro-1-oxo-1,2-dihydroisoquinolin-4-yl)ethyl)-3-(4-fluorophenyl)-1-methylurea]
pEC50 [1]: 5.37

CC(c1c[nH]c(=O)c2ccccc12)N(CC1CCOCC1)C(=O)Nc1ccc(F)c(Cl)c1 (racemic) [Compound 134, 3-(3-chloro-4-fluorophenyl)-1-(1-(1-oxo-1,2-dihydroisoquinolin-4-yl)ethyl)-1-((tetrahydro-2H-pyran-4-yl)methyl)urea]
pEC50 [5]: 7.15

CC(c1c[nH]c(=O)c2cc(F)c(F)cc12)N(C)C(=O)Nc1ccc(F)cc1 (single isomer, unassigned) [Compound 286, 1-(1-(6,7-Difluoro-1-oxo-1,2-dihydroisoquinolin-4-yl)ethyl)-3-(4-fluorophenyl)-1-methylurea]
pEC50 [1]: 7.70

O=C(Nc1ccc(F)c(Cl)c1)N(CCO)Cc1c[nH]c(=O)c2ccccc12 [Compound 27, 3-(3-Chloro-4-fluorophenyl)-1-(2-hydroxyethyl)-1-((1-oxo-1,2-dihydroisoquinolin-4-yl)methyl)urea]
pEC50 [5]: 6.00

CC(c1c[nH]c(=O)c2c(F)c(F)ccc12)N(C)C(=O)Nc1cc(F)c(F)c(F)c1 (single isomer, unassigned) [Compound 443, 1-(1-(7,8-Difluoro-1-oxo-1,2-dihydroisoquinolin-4-yl)ethyl)-1-methyl-3-(3,4,5-trifluorophenyl)urea]
pEC50 [1]: 7.40

CCN(C(=O)Nc1ccc(F)c(Cl)c1)C(c1cnc(OC)c2ccccc12)C1CC1 (single isomer, unassigned) [Compound 40, 3-(3-Chloro-4-fluorophenyl)-1-(cyclopropyl(1-methoxyisoquinolin-4-yl)methyl)-1-ethylurea]
pEC50 [2]: 4.70

CC(c1c[nH]c(=O)c2ccccc12)N(C[C@H]1CC[C@H](O)CC1)C(=O)Nc1ccc(F)c(Cl)c1 (mixture of isomers) [Compound 221, trans-3-(3-Chloro-4-fluorophenyl)-1-((4-hydroxycyclohexyl)methyl)-1-(1-(1-oxo-1,2-dihydroisoquinolin-4-yl)ethyl)urea]
pEC50 [5]: 6.68

C[C@H](c1c[nH]c(=O)c2ccccc12)N(C)C(=O)Nc1ccc(F)c(Cl)c1 [Compound 14, (R)-3-(3-chloro-4-fluorophenyl)-1-methyl-1-(1-(1-oxo-1,2-dihydroisoquinolin-4-yl)ethyl)urea]
pEC50 [5]: 7.40

CCN(C(=O)Nc1ccc(F)c(Cl)c1)C(c1ccccc1)c1c[nH]c(=O)c2ccccc12 (single isomer, unassigned) [Compound 70, 3-(3-Chloro-4-fluorophenyl)-1-ethyl-1-((1-oxo-1,2-dihydroisoquinolin-4-yl)(phenyl)methyl)urea]
pEC50 [4]: 4.80

COc1ncc(CN(C(=O)Nc2ccc(F)c(Cl)c2)C2CC2)c2ccccc12 [Compound 34, 3-(3-Chloro-4-fluorophenyl)-1-cyclopropyl-1-((1-methoxyisoquinolin-4-yl)methyl)urea]
pEC50 [5]: 5.43

CC(c1c[nH]c(=O)c2cc(F)c(F)cc12)N(C)C(=O)Nc1cccc(F)c1 (single isomer, unassigned) [Compound 410, 1-(1-(6,7-Difluoro-1-oxo-1,2-dihydroisoquinolin-4-yl)ethyl)-3-(3-fluorophenyl)-1-methylurea]
pEC50 [3]: 5.55

COCCOCCN(C(=O)Nc1ccc(F)c(Cl)c1)C(C)c1cnc(OC)c2ccccc12 (single isomer, unassigned) [Compound 121, 3-(3-Chloro-4-fluorophenyl)-1-(2-(2-methoxyethoxy)ethyl)-1-(1-(1-methoxyisoquinolin-4-yl)ethyl)urea]
pEC50 [2]: 4.64
